In patent US6916478B2, “Vaccines and pharmaceutical compositions using membrane vesicles of microorganisms, and methods for preparing same” (priority 1995, dated 2005):

What was measured:
P. aeruginosa PAO1 [1] = test: Antibiotic susceptibility (broth dilution in Muller-Hinton broth); assay type: cell-based, Pseudomonas aeruginosa
Experimental: (§1) Antibiotic susceptibility. The susceptibilities of bacterial strains to gentamicin (Sigma) were determined by broth dilution method in Muller-Hinton broth (Kadurugamuwa, J. L. et al, 1993 Antimicrob. Agents Chemother. 37:715-721). The MICs for PAO1, 8803, D2C, and DH5α were 2, 128 (10), 1.0, and 1.0 μg/ml, respectively.

P. aeruginosa 8803 [2] = test: as above; assay type: cell-based, Pseudomonas aeruginosa; conditions: 8803 (permeability-type gentamicin resistance)
Experimental: as §1

[3] = tested on: intracellular S. flexneri; test: g-MV effect on intracellular S. flexneri in infected human colonic epithelial cells; assay type: cell-based, Shigella flexneri; conditions: FIG. 17
Experimental: Incubation of g-MVs (25 μg MV protein/25 cm^2 cover slip) with S. flexneri infected human colonic epithelial cells (10^7 CFU/25 cm^2 cover slip) (Kadurugamuwa et al, 1991 Infect. Immun. 59:3464-3471) inhibited the multiplication of intracellular bacteria by approximately 88% in the first hour of incubation (FIG. 17). […] Gentamicin could only enter these cells because it was packaged into a bilayered MV which could […] with the otherwise impermeable membrane and liberate its contents into the cytoplasm. Soluble antibiotic had no effect on growth of intracellular bacteria confirming the impermeability of eucaryotic cell membrane to the antibiotic (FIG. 17). […] The small effect of n-MVs on intracellular bacteria was presumably due to murein hydrolases in n-MVs.

P. aeruginosa PAO1 [4] = test: Bactericidal activity (viable counting 0-5 h); assay type: cell-based, Pseudomonas aeruginosa; conditions: MVs 100 μg protein/ml, gentamicin 2.5×MIC, FIG. 23(c)
Experimental: (§2) Bacteriolytic activity. […] Exponential growth phase cultures grown in TSB were diluted in fresh TSB to produce a bacterial suspension of 10^8 CFU/ml.

P. aeruginosa 8803 [5] = test: Bactericidal activity (viable counting 0-5 h); assay type: cell-based, Pseudomonas aeruginosa; conditions: MVs 100 μg protein/ml, gentamicin 100 μg/ml, FIG. 23(d)
Experimental: as §2

Escherichia coli DH5α = test: Antibiotic susceptibility (broth dilution in Muller-Hinton broth); assay type: cell-based
Experimental: as §1

[6] = tested on: Staphylococcus aureus Newman D2C; test: as above; assay type: cell-based
Experimental: as §1

[7] = tested on: P. aeruginosa strain ATCC 19660; test: Antibiotic susceptibility test (MIC of gentamicin by dilution in MHB); assay type: cell-based, Pseudomonas aeruginosa; conditions: strain ATCC 19660, dilution in MHB
Experimental: (§3) Antibiotic susceptibility test. The Minimum Inhibitory Concentrations (MICs) of gentamicin were determined by dilution in MHB. The MICs for strains H 103 and ATCC 19660 were 2 and 2.5 μg/ml, respectively.

[8] = tested on: P. aeruginosa strain H 103; test: as above; assay type: cell-based, Pseudomonas aeruginosa; conditions: strain H 103, dilution in MHB
Experimental: as §3

Substance: gentamicin
- MIC (P. aeruginosa PAO1 [1]): 2 µg/mL
- MIC (P. aeruginosa 8803 [2]): 128 µg/mL
- effect on growth of intracellular bacteria [3]: no effect
- loss of viability of P. aeruginosa PAO1 (P. aeruginosa PAO1 [4]): exquisitely sensitive
- lytic effect on P. aeruginosa 8803 culture (P. aeruginosa 8803 [5]): (almost) direct correspondence between the control culture and the culture subjected to soluble gentamicin
- MIC (Escherichia coli DH5α): 1.0 µg/mL
- MIC [6]: 1.0 µg/mL
- Minimum Inhibitory Concentration (MIC) [7]: 2.5 µg/mL
- Minimum Inhibitory Concentration (MIC) [8]: 2 µg/mL
